As usually defined, the IC50 is the point on the concentration scale where inhibition reaches its midpoint.

In patent US20240327412A1, “FACTOR XIIA INHIBITORS” (KALVISTA PHARMACEUTICALS LIMITED, priority 2021, published 2024) one finds IC50 data, which are given here for 26 compounds.

This assay concerns the target T1, Human Factor XIIa (Homo sapiens, UniProt P00748).
T1 construct: Proteolytic cleavage of FXII to heavy and light chains of FXIIa dramatically increases catalytic activity; purchased Enzyme Research Laboratories
T1 sequence (P00748 373-615 limits assumed): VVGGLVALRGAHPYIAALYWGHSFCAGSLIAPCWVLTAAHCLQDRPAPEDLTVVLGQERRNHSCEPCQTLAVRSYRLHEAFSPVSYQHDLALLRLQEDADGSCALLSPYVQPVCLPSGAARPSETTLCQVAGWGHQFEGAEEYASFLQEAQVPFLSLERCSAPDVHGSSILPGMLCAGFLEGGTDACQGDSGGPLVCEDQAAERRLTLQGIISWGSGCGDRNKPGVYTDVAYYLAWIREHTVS
T1 sequence (P00748 20-372 partner limits assumed): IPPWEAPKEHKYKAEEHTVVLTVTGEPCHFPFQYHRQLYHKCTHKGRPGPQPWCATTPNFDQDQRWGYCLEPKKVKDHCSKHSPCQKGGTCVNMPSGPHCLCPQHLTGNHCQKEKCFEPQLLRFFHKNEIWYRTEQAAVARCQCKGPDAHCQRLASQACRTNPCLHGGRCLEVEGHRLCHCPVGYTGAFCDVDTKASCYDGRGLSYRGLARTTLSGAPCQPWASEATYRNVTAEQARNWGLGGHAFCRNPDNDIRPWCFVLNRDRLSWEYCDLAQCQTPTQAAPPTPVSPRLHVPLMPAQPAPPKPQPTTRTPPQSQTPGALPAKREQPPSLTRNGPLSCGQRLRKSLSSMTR
The assay is described as follows: Determination of FXIIa inhibition (fluorogenic substrate H-DPro-Phe-Arg-AFC, IC50 assay). It is filed as biochemical. The settings on record: substrate at Km concentration, 25° C.; category scale; read-out: Human FXII IC50 (nm). The gist of the method: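 At substrate Km and 25° C., the rate of AFC release from H-DPro-Phe-Arg-AFC by human Factor XIIa was followed for 5 min across compound concentrations. Inhibition was derived as percent of uninhibited rate, giving IC50.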
For `Cn1ccc(OCC23CN(c4nccc(-c5ccccc5)n4)C(CNc4cccc5c(N)nccc45)(C2)C3)cc1=O` [Example 12031, 4-((1-(((1-aminoisoquinolin-5-yl)amino)methyl)-2-(4-phenylpyrimidin-2-yl)-2-azabicyclo[2.1.1]hexan-4-yl)methoxy)-1-methylpyridin-2(1H)-one], the IC50 lay in the range of 0.1 to 0.3 µM. On to `c1cc2cc(NCC34CC(COc5ccn6ccnc6c5)(CCO3)C4)ccc2cn1` [Example 10958, N-((5-((imidazo[1,2-a]pyridin-7-yloxy)methyl)-2-oxabicyclo[3.1.1]heptan-1-yl)methyl)isoquinolin-6-amine], for which the 50% inhibitory concentration (IC50) fell in the range of 10 to 40 µM. On to `Cn1ccc(OCC23CC(CNc4cccc5c(N)nccc45)(CN2C(=O)CCc2ccccc2Cl)C3)cc1=O` [Example 13017, 4-((4-(((1-aminoisoquinolin-5-yl)amino)methyl)-2-(3-(2-chlorophenyl)propanoyl)-2-azabicyclo[2.1.1]hexan-1-yl)methoxy)-1-methylpyridin-2(1H)-one], for which the half-maximal inhibitory concentration (IC50) fell in the range of 0.3 to 1 µM. With `Nc1nccc2c(NCC34CC(COc5ccc6nncn6c5)(CO3)C4)cccc12` [Example 6634, N5-((4-(([1,2,4]triazolo[4,3-a]pyridin-6-yloxy)methyl)-2-oxabicyclo[2.1.1]hexan-1-yl)methyl)isoquinoline-1,5-diamine], the 50% inhibitory concentration (IC50) is 1 to 3 µM.

For `Cc1ccnc(OCC23CCOC(CNc4cccc5c(N)nccc45)(C2)C3)c1` [Example 10955, N5-((5-(((4-methylpyridin-2-yl)oxy)methyl)-2-oxabicyclo[3.1.1]heptan-1-yl)methyl)isoquinoline-1,5-diamine], the IC50 lay within 1 to 3 µM. On to `Nc1nccc2c(NCC34CC(Cn5ccnn5)(CO3)C4)cccc12` [Example 6648, N5-((4-((1H-1,2,3-triazol-1-yl)methyl)-2-oxabicyclo[2.1.1]hexan-1-yl)methyl)isoquinoline-1,5-diamine], for which the IC50 was in the range of 10 to 40 µM. For `Nc1nccc2c(NCC34CC(CN5CCCC5=O)(CO3)C4)cccc12` [Example 6649, 1-((1-(((1-aminoisoquinolin-5-yl)amino)methyl)-2-oxabicyclo[2.1.1]hexan-4-yl)methyl)pyrrolidin-2-one], the half-maximal inhibitory concentration (IC50) was in the range of 10 to 40 µM.

Regarding `Cn1ccc(OCC23CN(S(=O)(=O)CCc4ccccc4)C(CNc4cccc5c(N)nccc45)(C2)C3)cc1=O` [Example 12014, 4-[[1-[[(1-aminoisoquinolin-5-yl)amino]methyl]-2-(2-phenylethylsulfonyl)-2-azabicyclo[2.1.1]hexan-4-yl]methoxy]-1-methylpyridin-2-one], the IC50 was 0.01 to 0.1 µM. With `Cn1c(OCC23CCOC(CNc4cccc5c(N)nccc45)(C2)C3)cccc1=O` [Example 10945, 6-((1-(((1-aminoisoquinolin-5-yl)amino)methyl)-2-oxabicyclo[3.1.1]heptan-5-yl)methoxy)-1-methylpyridin-2(1H)-one] the figure was 3 to 10 µM; with `Cn1ccc(OCC23CN(C(=O)CCc4cccc5ncccc45)C(CNc4cccc5c(N)nccc45)(C2)C3)cc1=O` [Example 12052, 4-((1-(((1-aminoisoquinolin-5-yl)amino)methyl)-2-(3-(quinolin-5-yl)propanoyl)-2-azabicyclo[2.1.1]hexan-4-yl)methoxy)-1-methylpyridin-2(1H)-one], 0.01 to 0.1 µM. With `Cn1ccc(OCC23CC(CNc4cccc5c(N)nccc45)(CN2C(=O)Nc2ccccc2)C3)cc1=O` [Example 13019, 4-(((1-aminoisoquinolin-5-yl)amino)methyl)-1-(((1-methyl-2-oxo-1,2-dihydropyridin-4-yl)oxy)methyl)-N-phenyl-2-azabicyclo[2.1.1]hexane-2-carboxamide] the figure was 0.3 to 1 µM.

As for `Cn1ccc(OCC23CC(CNc4cccc5c(N)nccc45)(CN2S(=O)(=O)CCc2ccccc2)C3)cc1=O` [Example 13014, 4-((4-(((1-aminoisoquinolin-5-yl)amino)methyl)-2-(phenethylsulfonyl)-2-azabicyclo[2.1.1]hexan-1-yl)methoxy)-1-methylpyridin-2(1H)-one], the IC50 was 0.1 to 0.3 µM. With `Cc1nccc(OCC23CCOC(CNc4cccc5c(N)nccc45)(C2)C3)n1` [Example 10974, N5-((5-(((2-methylpyrimidin-4-yl)oxy)methyl)-2-oxabicyclo[3.1.1]heptan-1-yl)methyl)isoquinoline-1,5-diamine] the figure was 3 to 10 µM; with `COc1ccc(CNC(=O)N2CC3(COc4ccn(C)c(=O)c4)CC2(CNc2cccc4c(N)nccc24)C3)cc1` [Example 12062, 1-(((1-aminoisoquinolin-5-yl)amino)methyl)-N-(4-methoxybenzyl)-4-(((1-methyl-2-oxo-1,2-dihydropyridin-4-yl)oxy)methyl)-2-azabicyclo[2.1.1]hexane-2-carboxamide], 0.01 to 0.1 µM; with `Cc1cc(OCC23CC(CNc4cccc5c(N)nccc45)(C2)C3)cc(=O)n1C` [Example 1134, 4-((3-(((1-aminoisoquinolin-5-yl)amino)methyl)bicyclo[1.1.1]pentan-1-yl)methoxy)-1,6-dimethylpyridin-2(1H)-one], 0.1 to 0.3 µM. With `CC(=O)N1CC2(CNc3cccc4c(N)nccc34)CC1(COc1ccn(C)c(=O)c1)C2` [Example 13003, 4-((2-acetyl-4-(((1-aminoisoquinolin-5-yl)amino)methyl)-2-azabicyclo[2.1.1]hexan-1-yl)methoxy)-1-methylpyridin-2(1H)-one] the figure was 0.1 to 0.3 µM; with `Cn1ccc(OCC23CC(CNc4cccc5c(N)nccc45)(CN2C(=O)Cc2ccccc2)C3)cc1=O` [Example 13021, 4-((4-(((1-aminoisoquinolin-5-yl)amino)methyl)-2-(2-phenylacetyl)-2-azabicyclo[2.1.1]hexan-1-yl)methoxy)-1-methylpyridin-2(1H)-one], 0.3 to 1 µM; with `Cn1ccc(OCC23CN(C(=O)CCc4ccc5cccnc5c4)C(CNc4cccc5c(N)nccc45)(C2)C3)cc1=O` [Example 12055, 4-((1-(((1-aminoisoquinolin-5-yl)amino)methyl)-2-(3-(quinolin-7-yl)propanoyl)-2-azabicyclo[2.1.1]hexan-4-yl)methoxy)-1-methylpyridin-2(1H)-one], 0.01 to 0.1 µM. In the case of `Cn1c(C(F)(F)F)cc(OCC23CCOC(CNc4cccc5c(N)nccc45)(C2)C3)cc1=O` [Example 10951, 4-((1-(((1-aminoisoquinolin-5-yl)amino)methyl)-2-oxabicyclo[3.1.1]heptan-5-yl)methoxy)-1-methyl-6-(trifluoromethyl)pyridin-2(1H)-one], the concentration for half-maximal inhibition (IC50) was in the range of 0.3 to 1 µM. With `Cc1cnc2ccc(OCC34COC(CNc5ccccc5CC(F)(F)F)(C3)C4)cn12` [Example 6659, N-((4-(((3-methylimidazo[1,2-a]pyridin-6-yl)oxy)methyl)-2-oxabicyclo[2.1.1]hexan-1-yl)methyl)-2-(2,2,2-trifluoroethyl)aniline] the figure was 40 to 100 µM; with `Cn1cc(COC(=O)N2CC3(COc4ccn(C)c(=O)c4)CC2(CNc2cccc4c(N)nccc24)C3)cn1` [Example 12026, (1-methyl-1H-pyrazol-4-yl)methyl 1-(((1-aminoisoquinolin-5-yl)amino)methyl)-4-(((1-methyl-2-oxo-1,2-dihydropyridin-4-yl)oxy)methyl)-2-azabicyclo[2.1.1]hexane-2-carboxylate], 0.1 to 0.3 µM. With `Nc1nccc2c(NCC34CC(COc5ccc6nncn6c5)(CCO3)C4)cccc12` [Example 10929, N5-((5-(([1,2,4]triazolo[4,3-a]pyridin-6-yloxy)methyl)-2-oxabicyclo[3.1.1]heptan-1-yl)methyl)isoquinoline-1,5-diamine] the figure was 0.3 to 1 µM. `Cc1cn2cc(OCC34COC(CNc5cccc6c(N)nccc56)(C3)C4)ccc2n1` [Example 6633, N5-((4-(((2-methylimidazo[1,2-a]pyridin-6-yl)oxy)methyl)-2-oxabicyclo[2.1.1]hexan-1-yl)methyl)isoquinoline-1,5-diamine]: the concentration for half-maximal inhibition (IC50) lay within 0.1 to 0.3 µM.

Take `Cn1ccc(OCC23CC(CNc4cccc5c(N)nccc45)(CN2C(=O)Oc2ccccc2)C3)cc1=O` [Example 13006, phenyl 4-(((1-aminoisoquinolin-5-yl)amino)methyl)-1-(((1-methyl-2-oxo-1,2-dihydropyridin-4-yl)oxy)methyl)-2-azabicyclo[2.1.1]hexane-2-carboxylate]: the half-inhibitory concentration (IC50) is 0.01 to 0.1 µM. On to `Cn1ccc(OCC23CC(CNc4cccc5c(N)nccc45)(CN2C(=O)CCc2ccccn2)C3)cc1=O` [Example 13016, 4-((4-(((1-aminoisoquinolin-5-yl)amino)methyl)-2-(3-(pyridin-2-yl)propanoyl)-2-azabicyclo[2.1.1]hexan-1-yl)methoxy)-1-methylpyridin-2(1H)-one], for which the half-maximal inhibitory concentration (IC50) was in the range of 0.3 to 1 µM. With `CN1CCc2cc(OCC34COC(CNc5cccc6c(N)nccc56)(C3)C4)ccc2C1=O` [Example 6640, 6-((1-(((1-aminoisoquinolin-5-yl)amino)methyl)-2-oxabicyclo[2.1.1]hexan-4-yl)methoxy)-2-methyl-3,4-dihydroisoquinolin-1(2H)-one] the figure was 0.1 to 0.3 µM.
